Reference: ChEMBL document CHEMBL4028813, “Inhibitors of protein arginine deiminases and their efficacy in animal models of multiple sclerosis” (Bioorg Med Chem, 2017)
Each block holds one compound with its values, some of them ahead of it. Calls of active or inactive are those of the source. No cut-off for these calls is given here.

Legend:
[1] = target: T1, Protein-arginine deiminase type-4 (Homo sapiens, UniProt Q9UM07); assay: Inhibition of full length recombinant human N-terminal GST-tagged PAD4 expressed in baculovirus infected Sf9 cells up to 10 mM using benzoyl arginine ethylester as substrate preincubated for 30 mins followed by substrate addition measured after 30 mins by colorimetric assay
[2] = target: Protein-arginine deiminase type-2 (Mus musculus) (UniProt Q08642); assay: Inhibition of full length recombinant mouse N-terminal GST-tagged PAD2 expressed in baculovirus infected Sf9 cells up to 10 mM using benzoyl arginine ethyl ester as substrate preincubated for 30 mins followed by substrate addition measured after 30 mins by colorimetric assay
[3] = target: T2, Protein-arginine deiminase type-1 (Homo sapiens) (UniProt Q9ULC6); assay: Inhibition of human PAD1 up to 10 mM using benzoyl arginine ethylester as substrate preincubated for 30 mins followed by substrate addition measured after 30 mins by colorimetric assay
T2 sequence (whole entry): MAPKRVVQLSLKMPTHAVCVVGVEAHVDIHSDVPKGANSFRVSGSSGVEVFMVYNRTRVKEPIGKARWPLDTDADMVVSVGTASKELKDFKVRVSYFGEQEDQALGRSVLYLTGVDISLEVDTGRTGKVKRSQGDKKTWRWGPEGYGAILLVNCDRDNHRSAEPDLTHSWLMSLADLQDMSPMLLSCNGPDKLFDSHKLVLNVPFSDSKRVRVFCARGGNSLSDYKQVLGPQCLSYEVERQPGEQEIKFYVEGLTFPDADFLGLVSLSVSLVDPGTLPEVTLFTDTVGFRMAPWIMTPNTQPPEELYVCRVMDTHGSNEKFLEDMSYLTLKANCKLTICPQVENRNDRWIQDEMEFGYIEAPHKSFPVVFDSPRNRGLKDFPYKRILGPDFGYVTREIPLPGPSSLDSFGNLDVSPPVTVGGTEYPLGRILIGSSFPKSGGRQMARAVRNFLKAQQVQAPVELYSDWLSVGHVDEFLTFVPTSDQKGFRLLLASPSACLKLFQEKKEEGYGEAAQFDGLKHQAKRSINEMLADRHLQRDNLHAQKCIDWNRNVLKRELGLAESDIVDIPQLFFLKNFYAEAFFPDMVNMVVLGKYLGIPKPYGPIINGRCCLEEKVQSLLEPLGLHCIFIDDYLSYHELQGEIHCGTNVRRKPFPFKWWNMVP

[4] = target: T3, Protein-arginine deiminase type-1 (Homo sapiens, UniProt Q9ULC6); assay: Inhibition of human PAD1 using BAEE as substrate preincubated for 30 mins followed by substrate addition measured after 30 mins by colorimetric assay
T3 sequence (Q9ULC6 whole entry): T2 sequence (whole entry)

Mus musculus [5] = assay: Toxicity in MOG peptide/complete freund's adjuvant/pertussis toxin-induced C57BL/6 mouse autoimmune encephalomyelitis model assessed as change in body weight at 100 mg/kg, ip administered once daily for 40 days measured during compound dosing; type: organism-based; settings: in vivo, 960 h
[6] = target: Protein-arginine deiminase type-2 (Mus musculus, UniProt Q08642); assay: Inhibition of full length recombinant mouse N-terminal GST-tagged PAD2 expressed in baculovirus infected Sf9 cells using benzoyl arginine ethyl ester as substrate preincubated for 30 mins followed by substrate addition measured after 30 mins by colorimetric assay
[7] = target: T1, Protein-arginine deiminase type-4; assay: Inhibition of full length recombinant human N-terminal GST-tagged PAD4 expressed in baculovirus infected Sf9 cells using benzoyl arginine ethylester as substrate preincubated for 30 mins followed by substrate addition measured after 30 mins by colorimetric assay
Mus musculus [8] = assay: Antiinflammatory activity in MOG peptide/complete freund's adjuvant/pertussis toxin-induced C57BL/6 mouse autoimmune encephalomyelitis model assessed as improvement in physical disability at 100 mg/kg, ip administered once daily for 40 days measured daily during compound dosing; type: functional, organism-based
Mus musculus [9] = assay: Toxicity in MOG peptide/complete freund's adjuvant/pertussis toxin-induced C57BL/6 mouse autoimmune encephalomyelitis model assessed as change in body weight at 50 mg/kg, ip administered once daily for 40 days measured during compound dosing; type: organism-based; settings: in vivo, 960 h
[10] = AUC (0 to 360 mins) in C57BL/6 mouse serum at 100 mg/kg, ip administered as single dose by UPLC-MS analysis; type: ADME, organism-based; set-up: time < 6 hr, dose 100 mg/kg, route intraperitoneal
Mus musculus [11] = assay: (§1) Antiinflammatory activity MOG peptide/complete freund's adjuvant/pertussis toxin-induced C57BL/6 mouse autoimmune encephalomyelitis model assessed as reduction in scar tissue around blood vessels in brain at 100 mg/kg, ip administered once daily for 40 days measured post last dose by LFB/H and E staining based assay; type: functional, organism-based
[12] = Half life in C57BL/6 mouse serum at 100 mg/kg, ip administered as single dose by UPLC-MS analysis; type: ADME, organism-based
Mus musculus [13] = assay: Antiinflammatory activity in MOG peptide/complete freund's adjuvant/pertussis toxin-induced C57BL/6 mouse autoimmune encephalomyelitis model assessed as reduction in accumulation of CD3 positive cells in brain at 100 mg/kg, ip administered once daily for 40 days measured post last dose; type: functional, organism-based
[14] = Cmax in C57BL/6 mouse brain at 100 mg/kg, ip administered as single dose by UPLC-MS analysis; type: ADME, organism-based; set-up: dose 100 mg/kg, route intraperitoneal
[15] = Cmax in C57BL/6 mouse serum at 100 mg/kg, ip administered as single dose by UPLC-MS analysis; type: ADME, organism-based; set-up: dose 100 mg/kg, route intraperitoneal
[16] = Toxicity in MOG peptide/complete freund's adjuvant/pertussis toxin-induced C57BL/6 mouse autoimmune encephalomyelitis model assessed as death at 50 mg/kg, ip administered once daily for 40 days measured during compound dosing (reference value: 20%); type: organism-based; settings: in vivo, read-out: Activity
Mus musculus [17] = assay: Neuroprotective activity in CPZ-induced demyelination C57BL/6 mouse model assessed as increase in myelin content at 100 mg/kg, ip dosed daily for 6 weeks measured post last dose by LFB staining based immunohistochemical method; type: functional, organism-based
[18] = AUC (0 to 360 mins) in C57BL/6 mouse brain at 100 mg/kg, ip administered as single dose by UPLC-MS analysis; type: ADME, organism-based; set-up: dose 100 mg/kg, time < 6 hr, route intraperitoneal
Mus musculus [19] = assay: Antiinflammatory activity in ip dosed MOG peptide/complete freund's adjuvant/pertussis toxin-induced C57BL/6 mouse autoimmune encephalomyelitis model assessed as improvement in physical disability administered once daily for 40 days measured daily during compound dosing; type: functional, organism-based
[20] = Toxicity in MOG peptide/complete freund's adjuvant/pertussis toxin-induced C57BL/6 mouse autoimmune encephalomyelitis model assessed as death at 100 mg/kg, ip administered once daily for 40 days measured during compound dosing (reference value: 21%); type: organism-based; settings: in vivo, read-out: Activity
[21] = Tmax in C57BL/6 mouse serum at 100 mg/kg, ip administered as single dose by UPLC-MS analysis; type: ADME, organism-based
Mus musculus [22] = assay: Antiinflammatory activity in MOG peptide/complete freund's adjuvant/pertussis toxin-induced C57BL/6 mouse autoimmune encephalomyelitis model assessed as increase in myelin content at 100 mg/kg, ip administered once daily for 40 days measured post last dose by LFB /H and E staining based assay; type: functional, organism-based
Mus musculus [23] = assay: Antiinflammatory activity in MOG peptide/complete freund's adjuvant/pertussis toxin-induced C57BL/6 mouse autoimmune encephalomyelitis model assessed as improvement in physical disability at 50 mg/kg, ip administered once daily for 40 days measured daily during compound dosing; type: functional, organism-based
[24] = Elimination rate constant in C57BL/6 mouse brain at 100 mg/kg, ip administered as single dose by UPLC-MS analysis; type: ADME, organism-based
[25] = Half life in C57BL/6 mouse brain at 100 mg/kg, ip administered as single dose by UPLC-MS analysis; type: ADME, organism-based
[26] = Tmax in C57BL/6 mouse brain at 100 mg/kg, ip administered as single dose by UPLC-MS analysis; type: ADME, organism-based
Mus musculus [27] = assay: as §1, with “activity in” for “activity”, “inflammatory lesions” for “scar tissue around blood vessels”, “hematoxylin” for “LFB/H”, “eosin/Luxol-fast blue” for “E”; type: functional, organism-based
Mus musculus [28] = assay: Antiinflammatory activity in MOG peptide/complete freund's adjuvant/pertussis toxin-induced C57BL/6 mouse autoimmune encephalomyelitis model assessed as reduction in accumulation of MAC3 positive cells in brain at 100 mg/kg, ip administered once daily for 40 days measured post last dose; type: functional, organism-based
[29] = Elimination rate constant in C57BL/6 mouse serum at 100 mg/kg, ip administered as single dose by UPLC-MS analysis; type: ADME, organism-based

T1 sequence (Q9UM07 whole entry): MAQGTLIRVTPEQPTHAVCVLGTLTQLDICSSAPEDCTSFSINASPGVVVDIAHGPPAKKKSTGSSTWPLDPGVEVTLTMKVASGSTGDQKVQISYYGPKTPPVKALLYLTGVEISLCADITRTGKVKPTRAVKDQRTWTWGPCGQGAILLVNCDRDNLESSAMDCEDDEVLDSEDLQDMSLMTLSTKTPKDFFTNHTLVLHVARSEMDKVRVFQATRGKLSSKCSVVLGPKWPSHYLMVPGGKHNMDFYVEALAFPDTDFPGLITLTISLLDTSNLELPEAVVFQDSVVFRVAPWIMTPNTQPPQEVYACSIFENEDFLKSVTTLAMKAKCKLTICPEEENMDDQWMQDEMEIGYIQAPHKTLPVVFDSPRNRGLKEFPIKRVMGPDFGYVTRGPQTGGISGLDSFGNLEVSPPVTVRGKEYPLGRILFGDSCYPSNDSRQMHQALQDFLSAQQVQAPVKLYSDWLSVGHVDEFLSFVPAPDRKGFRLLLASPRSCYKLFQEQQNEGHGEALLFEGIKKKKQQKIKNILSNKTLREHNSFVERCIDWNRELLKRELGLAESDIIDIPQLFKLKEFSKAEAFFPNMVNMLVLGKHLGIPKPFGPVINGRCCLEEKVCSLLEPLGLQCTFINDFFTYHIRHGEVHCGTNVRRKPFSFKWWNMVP
Protein-arginine deiminase type-2, sequence (Q08642 whole entry): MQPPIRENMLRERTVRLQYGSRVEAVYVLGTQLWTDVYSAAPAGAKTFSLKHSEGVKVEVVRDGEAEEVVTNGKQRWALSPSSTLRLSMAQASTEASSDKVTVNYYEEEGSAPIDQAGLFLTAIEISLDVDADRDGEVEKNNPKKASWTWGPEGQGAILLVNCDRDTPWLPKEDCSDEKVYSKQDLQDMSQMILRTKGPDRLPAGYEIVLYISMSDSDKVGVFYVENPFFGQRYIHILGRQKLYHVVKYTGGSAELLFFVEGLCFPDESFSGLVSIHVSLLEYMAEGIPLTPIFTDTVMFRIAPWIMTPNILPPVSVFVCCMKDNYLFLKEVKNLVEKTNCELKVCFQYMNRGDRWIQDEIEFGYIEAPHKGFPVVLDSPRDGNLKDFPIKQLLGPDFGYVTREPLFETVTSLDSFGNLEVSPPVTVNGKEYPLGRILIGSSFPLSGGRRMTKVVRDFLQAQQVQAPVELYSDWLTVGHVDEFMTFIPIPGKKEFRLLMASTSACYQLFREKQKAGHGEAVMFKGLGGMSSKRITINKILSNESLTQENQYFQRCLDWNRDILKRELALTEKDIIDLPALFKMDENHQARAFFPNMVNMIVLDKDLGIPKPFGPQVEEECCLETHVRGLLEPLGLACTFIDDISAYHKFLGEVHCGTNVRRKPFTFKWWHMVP
Protein-arginine deiminase type-2 (Mus musculus), sequence (Q08642 whole entry): as above

SMILES: CN1CCN(CCN2C(=O)NC(C)(C)C2=O)CC1
inhibition [1]: inactive
inhibition [2]: inactive
inhibition [3]: inactive

SMILES: CC1(C)NC(=O)N(CN2CCNCC2)C1=O
Ki [4]: 445 µM
Activity (Mus musculus [5]): Non-Toxic
Ki [6]: 179 µM
Ki [7]: 0.183 mM
Activity (Mus musculus [8]): Active

SMILES: CC1(C)NC(=O)N(CCN2CCCC2)C1=O
inhibition [2]: inactive
inhibition [3]: inactive
Ki [7]: 4.64 mM

SMILES: CC1(C)NC(=O)N(CCn2ccnc2)C1=O
Activity (Mus musculus [9]): Non-Toxic
AUC(0-t) at 6 h [10]: 28000 ng·h/mL
Activity (Mus musculus [5]): Non-Toxic
Activity (Mus musculus [11]): Active
half-life [12]: 12.6 min
Activity (Mus musculus [13]): Active
Cmax [14]: 7.3 ng/mL
Cmax [15]: 79.9 µg/mL
mortality at 960 h [16]: 29%
Ki [6]: 4620 µM
Activity (Mus musculus [17]): Active
AUC(0-t) at 6 h [18]: 12.3 ng·h/mL
inhibition [3]: inactive
Activity (Mus musculus [19]): Dose-dependent effect
mortality at 960 h [20]: 0%
Ki [7]: 0.632 mM
Tmax [21]: 5 min
Activity (Mus musculus [22]): Active
Activity (Mus musculus [23]): inactive
k el [24]: 0.000117 s⁻¹
half-life [25]: 99 min
Tmax [26]: 45 min
Activity (Mus musculus [27]): Active
Activity (Mus musculus [28]): Active
k el [29]: 0.000917 s⁻¹
Activity (Mus musculus [8]): Active

SMILES: CC1(C)NC(=O)N(CCN2CCNCC2)C1=O
Ki [6]: 714 µM
inhibition [1]: inactive
inhibition [3]: inactive

SMILES: CC1(C)NC(=O)N(CCc2nnn[nH]2)C1=O
Ki [4]: 384 µM
Activity (Mus musculus [5]): Non-Toxic
Activity (Mus musculus [13]): Active
Ki [6]: 30 µM
mortality at 960 h [20]: 8%
Activity (Mus musculus [27]): Active
Activity (Mus musculus [28]): Active
Activity (Mus musculus [8]): Active

SMILES: Cc1cnc(C)n1CCN1C(=O)NC(C)(C)C1=O
inhibition [1]: inactive
inhibition [2]: inactive
inhibition [3]: inactive

SMILES: CC1(C)NC(=O)N(CCN2CCOCC2)C1=O
Ki [4]: 602 µM
Ki [7]: 1.43 mM

SMILES: CC(C)c1nccn1CCN1C(=O)NC(C)(C)C1=O
inhibition [1]: inactive
inhibition [2]: inactive
inhibition [3]: inactive

Continued, values first:

inhibition [1]: inactive
inhibition [2]: inactive
inhibition [3]: inactive
SMILES: Cc1cn(CCN2C(=O)NC(C)(C)C2=O)cn1

Ki [4]: 2420 µM
inhibition [1]: inactive
inhibition [2]: inactive
SMILES: Cc1nccn1CCN1C(=O)NC(C)(C)C1=O

inhibition [1]: inactive
inhibition [2]: inactive
inhibition [3]: inactive
SMILES: CC1(C)NC(=O)N(CCn2cncn2)C1=O

inhibition [1]: inactive
inhibition [2]: inactive
inhibition [3]: inactive
SMILES: CC1(C)NC(=O)N(CCn2cncc2CO)C1=O

inhibition [1]: inactive
inhibition [2]: inactive
inhibition [3]: inactive
SMILES: CC1(C)NC(=O)N(CCn2ccnn2)C1=O
